Measurements reported in ChEMBL document CHEMBL2074179, “Comparison of "type I" and "type II" organic cation transport by organic cation transporters and organic anion-transporting polypeptides” (J Pharmacol Exp Ther, 2001).
Several values for one entry are separate records, joined by “and”; a condition that tells them apart may be missing. Identical values can stand only once.

What was measured:
[1] = molecular target: T1, Solute carrier family 22 member 1 (Homo sapiens, UniProt O15245); test: (§1) TP_TRANSPORTER: uptake in Xenopus laevis oocytes; assay type: functional, cell-based; conditions: oocyte
T1 sequence (O15245 whole entry): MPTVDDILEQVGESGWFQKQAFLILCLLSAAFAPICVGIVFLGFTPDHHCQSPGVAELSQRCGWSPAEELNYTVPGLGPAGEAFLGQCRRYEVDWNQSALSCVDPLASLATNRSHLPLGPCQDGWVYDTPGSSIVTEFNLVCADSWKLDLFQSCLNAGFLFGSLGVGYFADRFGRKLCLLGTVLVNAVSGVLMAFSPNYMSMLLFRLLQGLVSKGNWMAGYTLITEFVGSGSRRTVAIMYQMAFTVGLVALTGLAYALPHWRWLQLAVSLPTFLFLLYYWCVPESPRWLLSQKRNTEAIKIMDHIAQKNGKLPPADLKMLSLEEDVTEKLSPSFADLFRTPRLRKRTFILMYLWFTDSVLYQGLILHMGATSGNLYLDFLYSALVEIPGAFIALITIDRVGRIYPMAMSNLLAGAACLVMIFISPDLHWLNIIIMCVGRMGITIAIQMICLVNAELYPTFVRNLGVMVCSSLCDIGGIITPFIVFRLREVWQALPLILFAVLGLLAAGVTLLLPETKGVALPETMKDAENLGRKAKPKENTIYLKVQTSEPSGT

[2] = molecular target: T2, Solute carrier family 22 member 1 (Rattus norvegicus, UniProt Q63089); test: as §1; assay type: functional, cell-based; conditions: oocyte
T2 sequence (Q63089 whole entry): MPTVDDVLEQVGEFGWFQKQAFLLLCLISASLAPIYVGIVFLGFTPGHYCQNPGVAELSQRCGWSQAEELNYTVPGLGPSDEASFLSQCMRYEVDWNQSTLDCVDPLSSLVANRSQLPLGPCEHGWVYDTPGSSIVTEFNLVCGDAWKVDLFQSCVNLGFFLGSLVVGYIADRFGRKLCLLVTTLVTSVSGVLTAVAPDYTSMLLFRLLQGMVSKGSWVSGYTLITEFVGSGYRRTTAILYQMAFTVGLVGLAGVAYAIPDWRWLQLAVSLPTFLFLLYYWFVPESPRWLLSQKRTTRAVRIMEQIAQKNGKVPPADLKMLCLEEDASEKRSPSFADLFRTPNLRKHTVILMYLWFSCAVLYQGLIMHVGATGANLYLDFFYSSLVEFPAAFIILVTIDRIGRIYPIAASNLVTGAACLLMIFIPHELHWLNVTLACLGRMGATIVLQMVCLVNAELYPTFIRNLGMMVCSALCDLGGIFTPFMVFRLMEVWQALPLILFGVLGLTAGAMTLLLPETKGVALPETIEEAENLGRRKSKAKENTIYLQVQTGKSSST

[3] = molecular target: T3, Solute carrier organic anion transporter family member 1A4 (Rattus norvegicus, UniProt O35913); test: (§2) TP_TRANSPORTER: inhibition of Rocuronium uptake in Xenopus laevis oocytes; assay type: functional, cell-based; conditions: oocyte
T3 sequence (O35913 whole entry): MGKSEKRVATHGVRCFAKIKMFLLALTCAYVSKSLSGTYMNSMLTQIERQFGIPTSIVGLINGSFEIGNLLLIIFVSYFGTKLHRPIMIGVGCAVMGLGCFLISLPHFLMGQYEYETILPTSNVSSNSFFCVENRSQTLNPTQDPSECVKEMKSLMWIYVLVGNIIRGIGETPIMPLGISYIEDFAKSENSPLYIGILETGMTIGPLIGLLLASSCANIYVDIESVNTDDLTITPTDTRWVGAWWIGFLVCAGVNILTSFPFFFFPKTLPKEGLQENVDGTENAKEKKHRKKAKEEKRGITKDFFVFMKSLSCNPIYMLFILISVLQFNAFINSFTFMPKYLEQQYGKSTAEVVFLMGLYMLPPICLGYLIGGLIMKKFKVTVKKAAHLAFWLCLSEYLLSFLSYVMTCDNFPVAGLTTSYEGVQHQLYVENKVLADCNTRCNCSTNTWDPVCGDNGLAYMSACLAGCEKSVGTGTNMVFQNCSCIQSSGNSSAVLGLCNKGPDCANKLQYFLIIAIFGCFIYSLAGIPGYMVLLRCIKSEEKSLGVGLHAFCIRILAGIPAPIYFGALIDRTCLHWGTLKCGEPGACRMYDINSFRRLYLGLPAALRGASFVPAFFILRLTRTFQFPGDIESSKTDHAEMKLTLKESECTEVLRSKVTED

[4] = molecular target: T4, Solute carrier organic anion transporter family member 1A2 (Homo sapiens, UniProt P46721); test: as §2; assay type: functional, cell-based; conditions: oocyte
T4 sequence (P46721 whole entry): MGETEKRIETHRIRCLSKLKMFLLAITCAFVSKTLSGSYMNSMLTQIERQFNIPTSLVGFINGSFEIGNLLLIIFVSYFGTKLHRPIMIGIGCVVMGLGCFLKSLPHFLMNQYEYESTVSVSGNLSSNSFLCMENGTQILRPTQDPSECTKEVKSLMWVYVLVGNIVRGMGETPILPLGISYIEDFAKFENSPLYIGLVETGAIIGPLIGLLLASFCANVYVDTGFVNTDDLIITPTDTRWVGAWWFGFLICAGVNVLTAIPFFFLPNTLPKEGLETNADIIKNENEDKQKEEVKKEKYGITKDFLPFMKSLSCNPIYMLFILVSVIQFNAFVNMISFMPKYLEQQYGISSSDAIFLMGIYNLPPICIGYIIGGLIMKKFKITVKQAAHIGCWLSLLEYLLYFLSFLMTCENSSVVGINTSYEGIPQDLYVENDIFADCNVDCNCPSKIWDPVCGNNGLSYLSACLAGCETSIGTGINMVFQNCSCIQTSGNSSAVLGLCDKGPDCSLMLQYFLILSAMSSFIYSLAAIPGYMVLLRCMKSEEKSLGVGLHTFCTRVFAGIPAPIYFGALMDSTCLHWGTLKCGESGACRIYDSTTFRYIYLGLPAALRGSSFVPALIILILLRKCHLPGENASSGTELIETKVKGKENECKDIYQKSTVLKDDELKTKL

[5] = molecular target: T1, Solute carrier family 22 member 1; test: (§3) TP_TRANSPORTER: inhibition of TBuMA uptake in Xenopus laevis oocytes; assay type: functional, cell-based; conditions: oocyte
[6] = molecular target: T2, Solute carrier family 22 member 1; test: as §3; assay type: functional, cell-based; conditions: oocyte
[7] = molecular target: T2, Solute carrier family 22 member 1; test: as §2; assay type: functional, cell-based; conditions: oocyte
[8] = substrate: CC[N+](C)(CC)CCNC(=O)c1ccc(N=[N+]=[N-])cc1; test: as §1; assay type: functional, cell-based, Oocyte
[9] = substrate: C=C[C@H]1C[N+]2(C)CC[C@H]1C[C@H]2[C@H](O)c1ccnc2ccc(OC)cc12; test: as §1; assay type: functional, cell-based, Oocyte
[10] = substrate: [H][C@@]12CC[N+](C)(C[C@]1([H])C=C)[C@@]([H])([C@@H](O)c1ccnc3ccc(OC)cc13)C2; test: as §1; assay type: functional, cell-based, Oocyte
[11] = substrate: CCCC[N+](C)(CCCC)CCCC; test: as §1; assay type: functional, cell-based, Oocyte

Question: What does the source list for `CCC1C[N+]2(CCCC3(C)N=N3)C3CC45c6ccccc6N(C)C4C2CC1C3C5O` (stereo unspecified)?
Answer: Activity [1]: substrate [+]; Activity [2]: substrate [+]

Question: `C[C@@H]1O[C@@H](O[C@H]2C[C@@H](O)[C@]3(CO)[C@H]4[C@H](O)C[C@]5(C)[C@@H](C6=CC(=O)OC6)CC[C@]5(O)[C@@H]4CC[C@]3(O)C2)[C@H](O)[C@H](O)[C@H]1O` [OUABAIN] was tested. Which Activity [3] did it give?
Answer: inhibitor [+]

Question: How did the Activity [4] turn out when `CO[C@H]1C[C@H](O[C@H]2CC[C@]3(C=O)[C@H]4CC[C@]5(C)[C@@H](C6=CC(=O)OC6)CC[C@]5(O)[C@@H]4CC[C@]3(O)C2)O[C@H](C)[C@H]1O[C@@H]1O[C@H](CO[C@@H]2O[C@H](CO)[C@@H](O)[C@H](O)[C@H]2O)[C@@H](O)[C@H](O)[C@H]1O` was run?
Answer: inhibitor [+]

Question: What about the Activity [3] of the same molecule?
Answer: inhibitor [+]

Question: Which results are given for `CC1(CCC[N+]23CCC(CC2)CC3)N=N1`?
Answer: Activity [1]: substrate [+]; Activity [2]: substrate [+]

Question: What does the source list for `C=C[C@H]1C[N@@]2CC[C@H]1C[C@@H]2[C@@H](O)c1ccnc2ccc(OC)cc12` [QUINIDINE]?
Answer: Activity [5]: inhibitor [+]; Activity [6]: inhibitor [+]; Activity [4]: inhibitor [+]

Question: `CC[N+](C)(CC)CCNC(=O)c1ccc(N=[N+]=[N-])cc1.[I-]` [AZIDOPROCAINAMIDE METHOIODIDE] was tested. Which Activity [5] did it give?
Answer: inhibitor [+]

Question: What about the Activity [6] of the same molecule?
Answer: inhibitor [+]

Question: And the Activity [4]?
Answer: inhibitor [+]

Question: How did the Activity [5] turn out when `C=CC[N+]1([C@H]2C[C@H]3[C@@H]4CC[C@H]5C[C@H](O)[C@@H](N6CCOCC6)C[C@]5(C)[C@H]4CC[C@]3(C)[C@H]2OC(C)=O)CCCC1` [ROCURONIUM] was run?
Answer: inhibitor [+]

Question: And the Activity [7]?
Answer: inhibitor [+]

Question: What does the source list for `C=C[C@H]1C[N+]2(C)CC[C@H]1C[C@@H]2[C@@H](O)c1ccnc2ccc(OC)cc12`?
Answer: Activity [5]: inhibitor [+]; Activity [6]: inhibitor [+]; Activity [4]: inhibitor [+]

B1: Solute carrier family 22 member 1 (Rattus norvegicus) (protein)
chain: MPTVDDVLEQVGEFGWFQKQAFLLLCLISASLAPIYVGIVFLGFTPGHYCQNPGVAELSQRCGWSQAEELNYTVPGLGPSDEASFLSQCMRYEVDWNQSTLDCVDPLSSLVANRSQLPLGPCEHGWVYDTPGSSIVTEFNLVCGDAWKVDLFQSCVNLGFFLGSLVVGYIADRFGRKLCLLVTTLVTSVSGVLTAVAPDYTSMLLFRLLQGMVSKGSWVSGYTLITEFVGSGYRRTTAILYQMAFTVGLVGLAGVAYAIPDWRWLQLAVSLPTFLFLLYYWFVPESPRWLLSQKRTTRAVRIMEQIAQKNGKVPPADLKMLCLEEDASEKRSPSFADLFRTPNLRKHTVILMYLWFSCAVLYQGLIMHVGATGANLYLDFFYSSLVEFPAAFIILVTIDRIGRIYPIAASNLVTGAACLLMIFIPHELHWLNVTLACLGRMGATIVLQMVCLVNAELYPTFIRNLGMMVCSALCDLGGIFTPFMVFRLMEVWQALPLILFGVLGLTAGAMTLLLPETKGVALPETIEEAENLGRRKSKAKENTIYLQVQTGKSSST
Question: How did the Km [8] turn out when B1 was run?
Answer: 54 µM

Question: And the Km [9]?
Answer: 17.3 µM and 17 µM

Question: What about the Km [10] of the same molecule?
Answer: 7.4 µM

Question: And the Km [11]?
Answer: 34 µM

B2: Solute carrier family 22 member 1 (Homo sapiens) (protein)
chain: MPTVDDILEQVGESGWFQKQAFLILCLLSAAFAPICVGIVFLGFTPDHHCQSPGVAELSQRCGWSPAEELNYTVPGLGPAGEAFLGQCRRYEVDWNQSALSCVDPLASLATNRSHLPLGPCQDGWVYDTPGSSIVTEFNLVCADSWKLDLFQSCLNAGFLFGSLGVGYFADRFGRKLCLLGTVLVNAVSGVLMAFSPNYMSMLLFRLLQGLVSKGNWMAGYTLITEFVGSGSRRTVAIMYQMAFTVGLVALTGLAYALPHWRWLQLAVSLPTFLFLLYYWCVPESPRWLLSQKRNTEAIKIMDHIAQKNGKLPPADLKMLSLEEDVTEKLSPSFADLFRTPRLRKRTFILMYLWFTDSVLYQGLILHMGATSGNLYLDFLYSALVEIPGAFIALITIDRVGRIYPMAMSNLLAGAACLVMIFISPDLHWLNIIIMCVGRMGITIAIQMICLVNAELYPTFVRNLGVMVCSSLCDIGGIITPFIVFRLREVWQALPLILFAVLGLLAAGVTLLLPETKGVALPETMKDAENLGRKAKPKENTIYLKVQTSEPSGT
Question: B2 was tested. Which Km [8] did it give?
Answer: 101 µM

Question: And the Km [9]?
Answer: 19.5 µM and 20 µM

Question: What about the Km [10] of the same molecule?
Answer: 11.5 µM and 12 µM

Question: And the Km [11]?
Answer: 53 µM
